Data published in patent US4786635A, “Novel benzothiazine derivatives” (Santen Pharmaceutical Co., Ltd., priority 1985, dated 1988).
Where a name gives a salt, the structure may show the parent alone.

tested on: Isolated guinea-pig taenia coli; assay: calcium-antagonistic activity: inhibition of CaCl2-induced contraction of isolated guinea-pig taenia coli; format: cell-based; conditions: Cavia porcellus, Ca^++ -free Krebs solution, 32° C., test compound 5 minutes before CaCl2 (3×10^-4 M), isotonic recording, read-out: IC50 (concentration of the test compound which elicited 50% inhibition of Ca^++ -induced contraction)
Procedure: (Method for mesurement of calcium-antagonistic activity) Isolated guinea-pig taenia coli was suspended in a 20 ml organ bath filled with Krebs solution at32° C. and bubbled with 5% carbon dioxide in oxygen. After equilibration, the muscle was suspended in Ca^++ -free Krebs solution. The muscle was then exposed to the test compound for 5 minutes before the addition of CaCl2, and the contraction induced by CaCl2 (3×10^-4 M) was recorded isotonically. The calcium-antagonistic activity was represented by the concentration of the test compound which elicited 50% inhibition (IC50) of Ca^++ -induced contraction.

Compound	IC50
COc1ccc(OCCCCN(C)CCOc2ccc3c(c2)OCO3)c(C2Sc3ccccc3N(C)C2=O)c1 (stereo not shown) [Compound A, 3,4-dihydro-2-[5-methoxy-2-[4-[N-methyl-N-[2-[(3,4-methylenedioxy)phenoxy]ethyl]amino]butoxy]phenyl]-4-methyl-3-oxo-2H-1,4-benzothiazine oxalate]	0.32 µM
COc1ccc(OCCCCN(C)CCOc2ccc(OC)c(OC)c2)c(C2Sc3ccccc3N(C)C2=O)c1 (stereo not shown) [Compound C, 3,4-dihydro-2-[5-methoxy-2-[4-[N-methyl-N-[2-[(3,4-dimethoxy)phenoxy]ethyl]amino]butoxy]phenyl]-4-methyl-3-oxo-2H-1,4-benzothiazine oxalate]	0.29 µM
COc1ccc(OCCCCN(C)CCc2ccc(OC)c(OC)c2)c(C2Sc3ccccc3N(C)C2=O)c1 (stereo not shown) [Reference Compound, 3,4-dihydro-2-[5-methoxy-2-[4-[N-methyl-(3,4-dimethoxy)phenetylamino]butoxy]phenyl]-4-methyl-3-oxo-2H-1,4-benzothiazine oxalate, reference compound]	3.2 µM
COc1ccc(OCCCN(C)CCOc2ccc3c(c2)OCO3)c(C2Sc3ccccc3N(C)C2=O)c1 (stereo not shown) [Compound B, 3,4-dihydro-2-[5-methoxy-2-[3-[N-methyl-N-[2-[(3,4-methylenedioxy)phenoxy]ethyl]amino]propoxy]phenyl]-4-methyl-3-oxo-2H-1,4-benzothiazine fumarate]	0.24 µM
